Here are results for 5 compounds from patent US9650380B2, “Difluoromethylene compound” (SATO PHARMACEUTICAL CO., LTD., priority 2012, dated 2017).

The structures appear in SMILES notation.

The experiment concerns the target T1, human URAT1 (Homo sapiens, UniProt Q96S37).
T1 construct: Human URAT1 full-length cDNA was introduced to an expression vector pcDNA5/FRT/V5-His TOPO; expressed in transfected cells
T1 sequence (Q96S37 1-553): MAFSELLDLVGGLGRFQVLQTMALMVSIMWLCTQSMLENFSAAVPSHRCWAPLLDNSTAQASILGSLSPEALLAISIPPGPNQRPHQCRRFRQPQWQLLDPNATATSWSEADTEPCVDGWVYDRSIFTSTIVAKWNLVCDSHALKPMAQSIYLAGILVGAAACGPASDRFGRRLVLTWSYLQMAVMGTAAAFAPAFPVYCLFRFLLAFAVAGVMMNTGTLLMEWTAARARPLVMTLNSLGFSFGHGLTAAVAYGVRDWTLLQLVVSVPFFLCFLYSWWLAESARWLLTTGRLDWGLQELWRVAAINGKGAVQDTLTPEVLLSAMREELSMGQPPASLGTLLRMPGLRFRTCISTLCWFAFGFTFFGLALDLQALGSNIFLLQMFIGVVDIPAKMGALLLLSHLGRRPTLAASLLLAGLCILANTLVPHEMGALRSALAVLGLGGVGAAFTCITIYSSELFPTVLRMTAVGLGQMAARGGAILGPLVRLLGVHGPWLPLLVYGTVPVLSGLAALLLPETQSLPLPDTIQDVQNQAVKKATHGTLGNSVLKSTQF
In words: Test for uric acid transport inhibition using human URAT1 expression cells. The experiment is classed as cell-based. The note with it: human URAT1 stable expression CHO cells; 14C-labeled uric acid 38 μM final; incorporation 5 minutes at room temperature; 100% window defined with benzbromarone 100 μM; read-out: URAT1 inhibitory activity (IC50). On the procedure: In this Example, it was evaluated whether the Example compound and the Reference example compound mentioned below has the URAT1 inhibitory activity.
Human URAT1 full-length cDNA was introduced to an expression vector pcDNA5/FRT/V5-His TOPO (registered trademark) (Invitrogen Corporation). The obtained expression plasmid was introduced to Chinese hamster ovary cell (hereinafter referred to as the CHO cell) by the liposome method using Lipofectamine LTX (Invitrogen) and cultured in a selection medium including hygromycin, whereby to prepare human URAT1 stable expression cell.
The human URAT1 expression CHO cell were cultured using D-MEM/F-12 (1:1) mixed medium including 10% bovine fatal serum and hygromycin at 37° C. in the presence of 5% CO2. The cells were seeded onto a 96-well plate (Corning Incorporated) at 0.8×10^5 cells/well, and after 24 hours, the test for uric acid transport inhibition below was performed.
The medium was removed by aspiration, and then the cells were washed once with an assay buffer including 125 mM of sodium gluconate, 4.8 mM of potassium gluconate, 1.2 mM of potassium dihydrogen phosphate, 1.2 mM of magnesium sulfate, 1.3 mM of calcium gluconate and 5.6 mM of glucose, 50 μL assay buffer including the test compound in various concentrations was added, and further 50 μL assay buffer including a radioactive ligand (uric acid labeled with ^14C; 38 μM final concentration) was added, and incorporation reaction was performed at room temperature for 5 minutes. Immediately after the completion of the reaction, the reaction mixture was washed twice with 100 μL ice-cold assay buffer, and 100 μL of 0.1N sodium hydroxide was added. The reaction mixture was stirred to lyse the cells, and 4 mL of Hionic-Fluor (Packard BioScience CO.) was added, and then the radioactivity was measured with a liquid scintillation counter (Beckman Coulter, Inc. and Packard BioScience CO).
The radioactivitiy when each concentration of the test compound was added (uric acid incorporation activity, %) was calculated in which the difference of the radioactivity when the test compound was not added (DMSO added) and the radioactivity when a positive control compound, benzbromarone (a known URAT1 inhibitor) was added in 100 μM, was taken as 100%, and the concentration of the test compound when the uric acid incorporation activity was inhibited to 50% (IC50) was obtained.

`Cc1nn(Cc2c(Cl)cccc2C(N)=O)c2cc(C(F)(F)c3nnn[nH]3)ccc12` [example 67, 3-chloro-2-{6-[difluoro(1H-tetrazol-5-yl)methyl]-3-methyl-1H-indazol-1-ylmethyl}benzamide]: the IC50 came to 46 nM.
To `Cc1nn(Cc2c(C#N)cccc2CO)c2cc(C(F)(F)c3nnn[nH]3)ccc12` [example 104] belongs 30 nM; to `Cc1cccc(C(N)=O)c1Cn1nc(C)c2ccc(C(F)(F)c3nnn[nH]3)nc21` [example 110, 2-{6-[difluoro(1H-tetrazol-5-yl)methyl]-3-methyl-1H-pyrazolo[3,4-b]pyridin-1-ylmethyl}-3-methylbenzamide], 44 nM.
`Cc1nn(Cc2c(C(N)=O)cccc2C2CC2)c2nc(C(F)(F)c3nnn[nH]3)ccc12` [example 116, 3-cyclopropyl-2-{6-[difluoro(1H-tetrazol-5-yl)methyl]-3-methyl-1H-pyrazolo[3,4-b]pyridin-1-ylmethyl}benzamide]: the IC50 is 36 nM.
As for `Cc1cccc(C#N)c1Cn1nc(CO)c2ccc(C(F)(F)C(=O)O)cc21` [example 121, [1-(2-cyano-6-methylbenzyl)-3-hydroxymethyl-1H-indazol-6-yl]difluoroacetic acid], the IC50 stood at 268 nM.

As a reminder, the IC50 is the point on the concentration scale where inhibition reaches its midpoint.
